The data set is described as follows: photoluminescence quantum yield (fraction); solvent given as SMILES.

As to `COc1ccccc1-c1cc2c(o1)=CC1=Cc3cc4oc(-c5ccccc5OC)cc4n3[B-](F)(F)[N+]=21`, for the setting “in ClC(Cl)Cl”, the photoluminescence quantum yield is 0.91.
In turn, `O=Cc1ccc(C#CC(C#Cc2ccc(C=O)o2)=Cc2ccc(C=C(C#Cc3ccc(C=O)o3)C#Cc3ccc(C=O)o3)cc2)o1` showed a photoluminescence quantum yield (in ClC(Cl)Cl) of 0.11.
On to `CCCCC(CC)CN1C(=O)c2cc(Oc3ccc(OC)cc3)c3c4c(Cl)cc5c6c(cc(Cl)c(c7c(Oc8ccc(OC)cc8)cc(c2c37)C1=O)c64)C(=O)N(c1c(C(C)C)cccc1C(C)C)C5=O` (centres undefined), for which the photoluminescence quantum yield (in Cc1ccccc1) amounted to 0.13.
`CCN(CC)c1ccc(-c2nc3c4ccccc4n(C)c3nc2-c2ccc(B(c3c(C)cc(C)cc3C)c3c(C)cc(C)cc3C)cc2)cc1` gave a photoluminescence quantum yield (in C1CCOC1) of 0.27.
In turn, `CC1(C)Oc2c(c3nc4ccccc4nc3c3ccccc23)CC1Br` (centres undefined) yielded a photoluminescence quantum yield (in C1CCCCC1) of 0.28; a photoluminescence quantum yield (in C1CCOC1) of 0.39; a photoluminescence quantum yield (in C1COCCO1) of 0.44; a photoluminescence quantum yield (in CC#N) of 0.49; a photoluminescence quantum yield (in CC(C)O) of 0.39; a photoluminescence quantum yield (in CCCCCC) of 0.25. The photoluminescence quantum yield runs as follows: (in CN(C)C=O) 0.34; (in CO) 0.57; (in c1ccccc1) 0.28.
As for `c1ccc(N(c2ccccc2)c2ccc3c(ccc4nc5ccc6cc(N(c7ccccc7)c7ccccc7)ccc6c5nc43)c2)cc1`, the photoluminescence quantum yield reads like this: (in C1CCCCC1) 0.56; (in C1CCOC1) 0.59; (in CN(C)C=O) 0.34; (in Cc1ccccc1) 0.44; (in ClCCl) 0.64.
Regarding `COc1ccc(N(c2ccc(/C=C(\C)c3ccccc3)cc2)c2ccc(/C=C(\C)c3ccccc3)cc2)cc1`, the photoluminescence quantum yield (in Cc1ccccc1) was 0.48.
On to `c1ccc(B2Nc3cc4c(cc3-c3sc5ccccc5c32)NB(c2ccccc2)c2c-4sc3ccccc23)cc1`, for which, where the note is “in ClCCl”, the photoluminescence quantum yield was 0.27.
`Cc1ccc(-c2nc3sc4ccccc4c3s2)cc1`: under “in CS(C)=O”, the photoluminescence quantum yield turned out to be 0.89.
With `C(#Cc1c(C#Cc2cccs2)c(C#Cc2cccs2)c(C#Cc2cccs2)c(C#Cc2cccs2)c1C#Cc1cccs1)c1cccs1`, the photoluminescence quantum yield (in ClCCl) is 0.27.
Regarding `CCCCN1\C(=C/C=C/C=C/C2=[N+](CCCC)c3ccc4ccccc4c3C2(C)C)C(C)(C)c2c1ccc1ccccc21`, for the setting “in CS(C)=O”, the photoluminescence quantum yield came to 0.291.
Turning to `CCCSc1ccc2n1[B-](F)(F)[N+]1=C(SC#N)C=CC1=C2c1ccccc1`, the photoluminescence quantum yield was 0.16 (in CC#N); 0.18 (in CCCCCC); 0.2 (in CCOC(C)=O); 0.16 (in CO); 0.27 (in ClCCl).
Turning to `c1ccc2c(c1)[nH]c1ncccc12`, the photoluminescence quantum yield runs as follows: (in CC#N) 0.47; (in CCCCCC) 0.31.
`COc1ccc(-c2cc3ccc4cc(-c5ccc(OC)cc5)cc5ccc(c2)c3c45)cc1`: the photoluminescence quantum yield is, setting by setting: (in C1CCCCC1) 0.08; (in C1CCOC1) 0.17; (in CC#N) 0.13; (in CCCCCC) 0.04; (in CCO) 0.12; (in CN(C)C=O) 0.34. Besides, the photoluminescence quantum yield by setting is: (in CO) 0.09; (in Cc1ccccc1) 0.09; (in ClC(Cl)Cl) 0.04; (in ClCCl) 0.09.
Consider `Cc1cc(-c2ccc(-n3c4ccccc4c4ccccc43)cc2)nc(-c2ccc(-c3ccccc3)cc2)n1`, for which the photoluminescence quantum yield was 0.62 (in C1CCOC1), 0.59 (in CN(C)C=O), 0.52 (in Cc1ccccc1) and 0.75 (in ClC(Cl)Cl).
`CCCCCCc1ccc(-n2c3[n+](c4c5ccccc5c5ccccc5c42)[B-](C)(C)c2ccccc2-3)cc1`: the photoluminescence quantum yield runs as follows: (in C1CCOC1) 0.45; (in CC#N) 0.28; (in Cc1ccccc1) 0.46; (in ClCCl) 0.38.
With `CCCCCCCCCCCCNc1cccc2[n+]1[B-](F)(F)n1c(c3cccc4cccc1c43)=N2`, the photoluminescence quantum yield was 0.18 (in C1CCOC1); 0.12 (in CC#N); 0.58 (in CCCCCC); 0.36 (in Cc1ccccc1); 0.25 (in ClCCl).
On to `F[B-]1(F)n2cccc2C(c2ccccc2)=C2C=CC(c3cccc(OC4=[N+]5C(=C(c6ccccc6)c6cc(Br)c(Br)n6[B-]5(F)F)C=C4Br)c3)=[N+]21`, for which the photoluminescence quantum yield (in ClC(Cl)Cl) was 0.28.
Where the note is “in CC#N”, `CN1/C(=C\C=C\C2=C3C=CC(c4ccccc4)=[N+]3[B-](F)(F)n3c2ccc3-c2ccccc2)Sc2ccccc21` registered a photoluminescence quantum yield of 0.1.
Regarding `Cc1ccc(N(c2ccc(C)cc2)c2ccc3c(c2)c2cc(N(c4ccc(C)cc4)c4ccc(C)cc4)ccc2n3-c2ccc(-c3nc4cccc5c4n3-c3ccccc3C5(C)C)cc2)cc1`, the photoluminescence quantum yield (in Cc1ccccc1) is 0.85 and the photoluminescence quantum yield (in O=P(c1ccccc1)(c1ccccc1)c1ccccc1Oc1ccccc1P(=O)(c1ccccc1)c1ccccc1) is 0.45.
For `CN1/C(=C/C=C(/C=C/c2sc3ccccc3[n+]2C)c2ccc(F)cc2)Sc2ccccc21`, the photoluminescence quantum yield by setting is: (in CCO) 0.1; (in CO) 0.09; (in CS(C)=O) 0.14.
As for `CCCN1C(=O)C(=CC=CC=C2Oc3ccccc3N2CCCS(=O)(=O)[O-])C(=O)N(CCC)C1=S`, the photoluminescence quantum yield runs as follows: (in CC(C)=O) 0.41; (in CCCCO) 0.37; (in CCO) 0.25; (in CO) 0.17; (in ClC(Cl)Cl) 0.32; (in O) 0.04.
For the compound `CSc1cc(-c2cc3cc4c5c(c3oc2=O)CCCN5CCC4)oc(=O)c1C#N`, the photoluminescence quantum yield was 0.9 (in C1CCOC1); 0.29 (in CC#N); 0.43 (in CC(C)=O); 0.67 (in CCOC(C)=O); 0.26 (in CN(C)C=O); 0.22 (in CO). The photoluminescence quantum yield amounted to 0.29 (in CS(C)=O), 0.71 (in Cc1ccccc1), 0.53 (in ClC(Cl)Cl) and 0.63 (in ClCCl).
Compound `C1=C(c2ccccc2)S[C@]23C1=C(c1ccccc1)[C@H](c1ccccc12)c1ccccc13` had a photoluminescence quantum yield (in ClCCl) of 1.
Turning to `CCN(CC)c1ccc2cc(C#N)/c(=N\C(=O)c3ccc(F)cc3)oc2c1`, the photoluminescence quantum yield is, setting by setting: (in CCO) 0.3; (in ClCCl) 0.83.
Regarding `Cc1cc(C)c([B-]2(c3c(C)cc(C)cc3C)[O+]=P(c3ccccc3)(c3ccccc3)c3ccsc3-c3sccc32)c(C)c1`, the photoluminescence quantum yield (in C1CCOC1) worked out at 0.23.
Take `Clc1ccc(/C=C/c2nc3ccccc3o2)cc1`: the photoluminescence quantum yield is, setting by setting: (in C1CCCCC1) 0.14; (in CO) 0.02.
In the case of `C(=C(c1ccccc1)c1ccccc1)c1ccc(-c2cc(-c3ccc(C=C(c4ccccc4)c4ccccc4)cc3)cc(-c3ccc(C=C(c4ccccc4)c4ccccc4)cc3)c2)cc1`, under “in C1CCOC1”, the photoluminescence quantum yield worked out at 0.0045.
With `c1ccc(-c2csc(-c3ccncc3)n2)cc1`, the photoluminescence quantum yield by setting is: (in CC#N) 0.558; (in CCO) 0.048; (in CN(C)C=O) 0.041; (in CS(C)=O) 0; (in ClCCl) 0.28.
Compound `CC(C)[Si](C#Cc1c2c(=O)c3ccccc3c2c(C#C[Si](C(C)C)(C(C)C)C(C)C)c2c(=O)c3ccccc3c12)(C(C)C)C(C)C` showed a photoluminescence quantum yield (in ClC(Cl)Cl) of 0.1.

For the origin of these results see the Deep4Chem optical property database.
